Experimental data: US11969428B2, “Methods and pharmaceutical compositions for treating lymphoid malignancy” (priority 2011, dated 2024)

Legend:
Assay in all cases: Ambit KinomeScan screening
Type in all cases: binding
Settings in all cases: CAL-130 10 μM
IKK-α = biological target: T1, IKK-α (Homo sapiens, UniProt O15111)
T1 construct: Ambit (KinomeScan screening)
Description: (§1) CAL-130 (10 μM) was evaluated for its ability to prevent tagged kinases from interacting with immobilized “bait” ligand (Karaman et al., 2008). Results are reported as “% of control binding”, where lower numbers indicate stronger interactions with the tagged kinase. Values of >35% are considered “no hits”. PI3Kδ had the lowest percentage of control binding at 0.2% followed by PI3Kγ at 3.2% (See Table 1 below). These values indicate a high probability of a potent interaction. 353 kinases were assessed in the screen (Table 2).

INSRR = biological target: T2, INSRR (Homo sapiens, UniProt P14616)
T2 construct: Ambit (KinomeScan screening)
Description: as §1

IKK-β = biological target: T3, IKK-β (Homo sapiens, UniProt O14920)
T3 construct: Ambit (KinomeScan screening)
T3 sequence (O14920 whole entry): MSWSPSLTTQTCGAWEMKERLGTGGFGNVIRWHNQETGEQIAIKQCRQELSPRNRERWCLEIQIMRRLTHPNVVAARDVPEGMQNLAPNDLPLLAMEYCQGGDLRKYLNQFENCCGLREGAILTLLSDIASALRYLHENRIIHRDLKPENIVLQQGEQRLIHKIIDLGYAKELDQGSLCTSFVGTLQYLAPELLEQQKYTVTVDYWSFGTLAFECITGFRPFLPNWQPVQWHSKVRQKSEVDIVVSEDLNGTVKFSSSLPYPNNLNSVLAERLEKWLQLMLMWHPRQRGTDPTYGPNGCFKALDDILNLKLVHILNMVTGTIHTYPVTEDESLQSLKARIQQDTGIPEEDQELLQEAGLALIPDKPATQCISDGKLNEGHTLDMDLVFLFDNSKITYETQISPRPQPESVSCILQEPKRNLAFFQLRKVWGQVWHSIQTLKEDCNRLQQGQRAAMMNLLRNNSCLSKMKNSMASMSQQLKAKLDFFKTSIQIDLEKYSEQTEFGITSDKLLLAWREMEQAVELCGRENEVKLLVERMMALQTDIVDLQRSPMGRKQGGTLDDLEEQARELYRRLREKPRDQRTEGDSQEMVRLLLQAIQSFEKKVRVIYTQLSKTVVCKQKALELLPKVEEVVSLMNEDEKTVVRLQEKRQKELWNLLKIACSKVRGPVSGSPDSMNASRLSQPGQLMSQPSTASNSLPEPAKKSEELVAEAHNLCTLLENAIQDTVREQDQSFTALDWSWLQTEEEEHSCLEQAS
Description: as §1

HPK1 = biological target: T4, HPK1 (Homo sapiens, UniProt Q92918)
T4 construct: Ambit (KinomeScan screening)
Description: as §1

FLT3(D835H) = biological target: T5, FLT3(D835H) (Homo sapiens, UniProt P36888, D835H)
T5 construct: unspecified tag; purchased Ambit (KinomeScan screening service)
Description: as §1

ABL1(H396P) = biological target: T6, ABL1(H396P) (Homo sapiens, UniProt P00519, H396P)
T6 construct: unspecified tag ("tagged kinases"); purchased Ambit (KinomeScan screening)
Description: as §1

DYRK2 = biological target: T7, DYRK2 (Homo sapiens, UniProt Q92630)
T7 construct: unspecified tag; purchased Ambit (KinomeScan screening service)
Description: as §1

TLK2 = biological target: T8, TLK2 (Homo sapiens, UniProt Q86UE8)
T8 construct: unspecified tag (tagged kinase); purchased Ambit (KinomeScan screening)
Description: as §1

HCK = biological target: T9, HCK (Homo sapiens, UniProt P08631)
T9 construct: unspecified tag ('tagged kinases'); purchased Ambit (KinomeScan screening service)
Description: as §1

JNK2 = biological target: T10, JNK2 (Homo sapiens, UniProt P45984)
T10 construct: purchased Ambit (KinomeScan screening)
Description: as §1

TTK = biological target: T11, TTK (Homo sapiens, UniProt P33981)
T11 construct: tag, kind not specified; purchased Ambit (KinomeScan screening service)
Description: as §1

TSSK1B = biological target: T12, TSSK1B (Homo sapiens, UniProt Q9BXA7)
T12 construct: tag, kind not specified; purchased Ambit (KinomeScan screening service)
Description: as §1

ANKK1 = biological target: T13, ANKK1 (Homo sapiens, UniProt Q8NFD2)
T13 construct: purchased Ambit (KinomeScan screening)
T13 sequence (Q8NFD2 whole entry): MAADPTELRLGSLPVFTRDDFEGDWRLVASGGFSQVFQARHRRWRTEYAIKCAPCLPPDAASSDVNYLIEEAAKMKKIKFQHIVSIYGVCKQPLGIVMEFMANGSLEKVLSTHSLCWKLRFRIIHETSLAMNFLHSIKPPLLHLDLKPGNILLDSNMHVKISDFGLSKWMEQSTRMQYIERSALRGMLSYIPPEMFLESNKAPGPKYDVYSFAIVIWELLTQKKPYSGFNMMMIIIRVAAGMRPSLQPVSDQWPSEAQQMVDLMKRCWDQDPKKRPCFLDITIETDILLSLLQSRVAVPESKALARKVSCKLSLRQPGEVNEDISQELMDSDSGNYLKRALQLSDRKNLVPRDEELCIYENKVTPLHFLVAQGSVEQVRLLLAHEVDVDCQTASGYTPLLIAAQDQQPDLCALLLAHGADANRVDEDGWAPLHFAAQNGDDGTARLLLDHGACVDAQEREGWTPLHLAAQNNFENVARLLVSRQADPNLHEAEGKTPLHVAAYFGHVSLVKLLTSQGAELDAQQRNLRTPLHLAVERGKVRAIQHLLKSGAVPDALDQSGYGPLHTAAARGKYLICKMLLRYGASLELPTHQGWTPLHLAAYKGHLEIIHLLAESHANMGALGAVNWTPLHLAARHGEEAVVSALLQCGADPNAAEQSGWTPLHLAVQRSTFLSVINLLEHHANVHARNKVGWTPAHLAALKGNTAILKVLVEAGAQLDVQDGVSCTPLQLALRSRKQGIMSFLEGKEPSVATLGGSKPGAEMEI
Description: as §1

ROS1 = biological target: T14, ROS1 (Homo sapiens, UniProt P08922)
T14 construct: unspecified tag (tagged kinase); purchased Ambit (KinomeScan screening)
Description: as §1

ABL2 = biological target: T15, ABL2 (Homo sapiens, UniProt P42684)
T15 construct: unspecified tag ("tagged kinases"); purchased Ambit (KinomeScan screening)
Description: as §1

FLT3 = biological target: T16, FLT3 (Homo sapiens, UniProt P36888)
T16 construct: unspecified tag; purchased Ambit (KinomeScan screening service)
Description: as §1

ZAK = biological target: T17, ZAK (Homo sapiens, UniProt Q9NYL2)
T17 construct: purchased Ambit (KinomeScan screening service)
T17 sequence (Q9NYL2 whole entry): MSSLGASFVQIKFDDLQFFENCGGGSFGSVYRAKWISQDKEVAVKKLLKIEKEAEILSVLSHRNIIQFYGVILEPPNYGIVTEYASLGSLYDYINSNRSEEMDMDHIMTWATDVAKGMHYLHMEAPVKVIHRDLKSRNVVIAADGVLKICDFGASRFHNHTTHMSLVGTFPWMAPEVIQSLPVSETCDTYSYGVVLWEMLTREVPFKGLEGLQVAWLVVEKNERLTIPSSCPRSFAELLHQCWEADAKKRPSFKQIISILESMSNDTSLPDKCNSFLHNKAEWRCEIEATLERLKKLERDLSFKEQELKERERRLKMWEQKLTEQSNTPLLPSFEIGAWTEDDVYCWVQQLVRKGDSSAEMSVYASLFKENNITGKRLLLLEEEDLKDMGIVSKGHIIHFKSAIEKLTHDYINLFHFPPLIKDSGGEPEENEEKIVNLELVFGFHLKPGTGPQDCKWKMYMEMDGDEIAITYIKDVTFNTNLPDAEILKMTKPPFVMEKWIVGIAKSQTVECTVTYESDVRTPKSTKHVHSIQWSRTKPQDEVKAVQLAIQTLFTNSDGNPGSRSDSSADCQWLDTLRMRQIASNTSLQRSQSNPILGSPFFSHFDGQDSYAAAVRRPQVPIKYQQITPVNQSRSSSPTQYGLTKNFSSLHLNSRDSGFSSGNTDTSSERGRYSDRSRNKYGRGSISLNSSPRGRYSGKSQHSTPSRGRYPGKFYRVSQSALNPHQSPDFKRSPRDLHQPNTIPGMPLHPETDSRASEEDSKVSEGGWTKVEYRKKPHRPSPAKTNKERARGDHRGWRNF
Description: as §1

PFTK1 = biological target: T18, PFTK1 (Homo sapiens, UniProt O94921)
T18 construct: unspecified tag ('tagged kinases'); purchased Ambit (KinomeScan screening)
T18 sequence (O94921 whole entry): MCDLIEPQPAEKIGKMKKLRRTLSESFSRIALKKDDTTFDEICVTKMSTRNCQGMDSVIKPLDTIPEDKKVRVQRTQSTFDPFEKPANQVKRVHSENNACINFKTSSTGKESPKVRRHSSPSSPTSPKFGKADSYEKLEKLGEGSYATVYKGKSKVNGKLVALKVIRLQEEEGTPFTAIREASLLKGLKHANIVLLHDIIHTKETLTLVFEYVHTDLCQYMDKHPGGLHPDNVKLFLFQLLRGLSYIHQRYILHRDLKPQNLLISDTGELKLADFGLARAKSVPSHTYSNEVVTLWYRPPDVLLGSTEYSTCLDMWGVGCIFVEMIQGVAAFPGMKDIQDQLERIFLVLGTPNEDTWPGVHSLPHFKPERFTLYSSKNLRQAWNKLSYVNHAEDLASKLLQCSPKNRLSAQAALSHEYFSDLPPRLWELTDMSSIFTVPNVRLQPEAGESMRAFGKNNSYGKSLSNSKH
Description: as §1

PLK2 = biological target: T19, PLK2 (Homo sapiens, UniProt Q9NYY3)
T19 construct: purchased Ambit (KinomeScan screening service)
Description: as §1

DCAMKL1 = biological target: T20, DCAMKL1 (Homo sapiens, UniProt O15075)
T20 construct: unspecified tag ("tagged kinases"); purchased Ambit (KinomeScan screening service)
Description: as §1

EPHB2 = biological target: T21, EPHB2 (Homo sapiens, UniProt P29323)
T21 construct: purchased Ambit (KinomeScan screening service)
Description: as §1

BRSK2 = biological target: T22, BRSK2 (Homo sapiens, UniProt Q8IWQ3)
T22 construct: unspecified tag ("tagged kinases"); purchased Ambit (KinomeScan screening)
Description: as §1

STK33 = biological target: T23, STK33 (Homo sapiens, UniProt Q9BYT3)
T23 construct: purchased Ambit (KinomeScan screening service)
Description: as §1

FGFR1 = biological target: T24, FGFR1 (Homo sapiens, UniProt P11362)
T24 construct: unspecified tag; purchased Ambit (KinomeScan screening service)
Description: as §1

ZAP70 = biological target: T25, ZAP70 (Homo sapiens, UniProt P43403)
T25 construct: purchased Ambit (KinomeScan screening service)
T25 sequence (P43403 whole entry): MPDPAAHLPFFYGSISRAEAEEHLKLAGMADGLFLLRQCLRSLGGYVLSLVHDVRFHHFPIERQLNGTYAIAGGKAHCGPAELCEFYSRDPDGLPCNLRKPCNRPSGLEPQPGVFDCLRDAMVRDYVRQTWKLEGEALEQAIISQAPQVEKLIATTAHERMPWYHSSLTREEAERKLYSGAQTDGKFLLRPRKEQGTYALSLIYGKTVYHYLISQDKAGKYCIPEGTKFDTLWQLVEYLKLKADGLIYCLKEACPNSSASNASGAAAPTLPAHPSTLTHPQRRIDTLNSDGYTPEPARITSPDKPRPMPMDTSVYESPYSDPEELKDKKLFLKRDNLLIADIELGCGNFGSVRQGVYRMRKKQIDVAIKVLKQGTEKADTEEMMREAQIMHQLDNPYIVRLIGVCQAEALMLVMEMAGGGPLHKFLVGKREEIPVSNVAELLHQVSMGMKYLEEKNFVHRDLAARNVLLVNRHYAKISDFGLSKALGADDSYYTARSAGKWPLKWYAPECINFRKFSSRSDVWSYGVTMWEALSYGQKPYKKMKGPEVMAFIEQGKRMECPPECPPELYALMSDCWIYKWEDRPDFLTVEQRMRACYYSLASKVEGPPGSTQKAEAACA
Description: as §1

IRAK1 = biological target: T26, IRAK1 (Homo sapiens, UniProt P51617)
T26 construct: Ambit (KinomeScan screening)
T26 sequence (P51617 whole entry): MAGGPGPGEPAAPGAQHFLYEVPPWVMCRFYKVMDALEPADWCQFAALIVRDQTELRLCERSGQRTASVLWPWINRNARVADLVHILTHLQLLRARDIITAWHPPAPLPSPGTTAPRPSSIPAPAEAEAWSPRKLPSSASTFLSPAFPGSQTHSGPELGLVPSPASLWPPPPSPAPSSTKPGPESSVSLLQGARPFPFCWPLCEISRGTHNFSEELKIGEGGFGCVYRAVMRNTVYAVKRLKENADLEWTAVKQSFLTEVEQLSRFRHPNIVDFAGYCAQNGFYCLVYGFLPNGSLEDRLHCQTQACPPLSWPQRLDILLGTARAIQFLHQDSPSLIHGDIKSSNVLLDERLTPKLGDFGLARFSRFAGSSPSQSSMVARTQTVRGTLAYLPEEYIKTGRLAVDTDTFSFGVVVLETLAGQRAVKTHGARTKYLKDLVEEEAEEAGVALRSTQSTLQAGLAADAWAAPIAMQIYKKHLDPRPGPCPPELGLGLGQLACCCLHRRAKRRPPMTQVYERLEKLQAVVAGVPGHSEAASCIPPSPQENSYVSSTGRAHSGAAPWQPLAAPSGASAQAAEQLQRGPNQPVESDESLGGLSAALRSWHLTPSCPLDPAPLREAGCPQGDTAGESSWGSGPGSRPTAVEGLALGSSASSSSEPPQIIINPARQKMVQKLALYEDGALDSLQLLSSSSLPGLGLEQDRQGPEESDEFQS
Description: as §1

CDK2 = biological target: T27, CDK2 (Homo sapiens, UniProt P24941)
T27 construct: purchased Ambit (KinomeScan screening)
Description: as §1

MAPKAPK5 = biological target: T28, MAPKAPK5 (Homo sapiens, UniProt Q8IW41)
T28 construct: Ambit (KinomeScan screening)
Description: as §1

TBK1 = biological target: T29, TBK1 (Homo sapiens, UniProt Q9UHD2)
T29 construct: tag (kind not specified); purchased Ambit (KinomeScan screening service)
Description: as §1

NEK1 = biological target: T30, NEK1 (Homo sapiens, UniProt Q96PY6)
T30 construct: unspecified tag; purchased Ambit (KinomeScan screening panel)
Description: as §1

FGR = biological target: T31, FGR (Homo sapiens, UniProt P09769)
T31 construct: unspecified tag; purchased Ambit (KinomeScan screening service)
Description: as §1

PKN1 = biological target: T32, PKN1 (Homo sapiens, UniProt Q16512)
T32 construct: purchased Ambit (KinomeScan screening service)
Description: as §1

PAK5 = system: PAK5
Description: as §1

ACVR2A = biological target: T33, ACVR2A (Homo sapiens, UniProt P27037)
T33 construct: purchased Ambit (KinomeScan screening)
T33 sequence (P27037 20-513): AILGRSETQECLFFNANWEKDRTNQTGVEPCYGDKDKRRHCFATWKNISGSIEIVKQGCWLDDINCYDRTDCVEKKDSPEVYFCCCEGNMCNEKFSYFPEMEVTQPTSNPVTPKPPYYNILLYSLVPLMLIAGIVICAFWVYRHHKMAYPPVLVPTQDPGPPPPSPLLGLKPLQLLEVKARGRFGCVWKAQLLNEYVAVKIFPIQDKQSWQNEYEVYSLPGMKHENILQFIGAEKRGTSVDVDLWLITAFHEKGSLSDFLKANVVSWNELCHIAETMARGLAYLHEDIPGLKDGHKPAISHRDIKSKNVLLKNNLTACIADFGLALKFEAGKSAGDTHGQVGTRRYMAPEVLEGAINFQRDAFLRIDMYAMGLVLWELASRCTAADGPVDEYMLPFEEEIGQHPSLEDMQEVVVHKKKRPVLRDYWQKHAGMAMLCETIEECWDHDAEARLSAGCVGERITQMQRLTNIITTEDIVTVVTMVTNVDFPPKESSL
Description: as §1

AURKC = biological target: T34, AURKC (Homo sapiens, UniProt Q9UQB9)
T34 construct: purchased Ambit (KinomeScan screening service)
Description: as §1

TNK1 = biological target: T35, TNK1 (Homo sapiens, UniProt Q13470)
T35 construct: unspecified tag (tagged kinase); purchased Ambit (KinomeScan screening)
Description: as §1

AURKB = biological target: T36, AURKB (Homo sapiens, UniProt Q96GD4)
T36 construct: purchased Ambit (KinomeScan screening service)
T36 sequence (Q96GD4 whole entry): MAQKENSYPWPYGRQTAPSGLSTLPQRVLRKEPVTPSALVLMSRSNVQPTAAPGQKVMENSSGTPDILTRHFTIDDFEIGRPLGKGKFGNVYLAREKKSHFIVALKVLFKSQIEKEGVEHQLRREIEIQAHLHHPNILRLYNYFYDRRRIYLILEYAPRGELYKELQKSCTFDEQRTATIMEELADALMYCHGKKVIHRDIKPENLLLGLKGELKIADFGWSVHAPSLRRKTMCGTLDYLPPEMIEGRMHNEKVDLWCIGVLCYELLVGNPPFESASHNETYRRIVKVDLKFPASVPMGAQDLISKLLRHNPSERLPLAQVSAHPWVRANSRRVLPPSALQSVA
Description: as §1

SMILES: Cc1ccccc1-n1c(C(C)Nc2nc(N)nc3nc[nH]c23)nc2cccc(C)c2c1=O (stereo not shown) [CAL-130]
- Percent of Control Binding (IKK-α): 100%
- Percent of Control Binding (INSRR): 100%
- Percent of Control Binding (IKK-β): 100%
- Percent of Control Binding (HPK1): 100%
- Percent of Control Binding (FLT3(D835H)): 100%
- Percent of Control Binding (ABL1(H396P)): 100%
- Percent of Control Binding (DYRK2): 100%
- Percent of Control Binding (TLK2): 100%
- Percent of Control Binding (HCK): 100%
- Percent of Control Binding (JNK2): 100%
- Percent of Control Binding (TTK): 11%
- Percent of Control Binding (TSSK1B): 100%
- Percent of Control Binding (ANKK1): 100%
- Percent of Control Binding (ROS1): 100%
- Percent of Control Binding (ABL2): 100%
- Percent of Control Binding (FLT3): 100%
- Percent of Control Binding (ZAK): 100%
- Percent of Control Binding (PFTK1): 100%
- Percent of Control Binding (PLK2): 100%
- Percent of Control Binding (DCAMKL1): 100%
- Percent of Control Binding (EPHB2): 100%
- Percent of Control Binding (BRSK2): 100%
- Percent of Control Binding (STK33): 100%
- Percent of Control Binding (FGFR1): 100%
- Percent of Control Binding (ZAP70): 100%
- Percent of Control Binding (IRAK1): 100%
- Percent of Control Binding (CDK2): 100%
- Percent of Control Binding (MAPKAPK5): 100%
- Percent of Control Binding (TBK1): 100%
- Percent of Control Binding (NEK1): 100%
- Percent of Control Binding (FGR): 100%
- Percent of Control Binding (PKN1): 100%
- Percent of Control Binding (PAK5): 100%
- Percent of Control Binding (ACVR2A): 100%
- Percent of Control Binding (AURKC): 100%
- Percent of Control Binding (TNK1): 100%
- Percent of Control Binding (AURKB): 100%
